According to the supplement of paper PMC10307832:

How the values were obtained:
Assay in all cases: relative viability (nuclei count vs DMSO), 5 days (fraction); higher = more cells survive
[1] = compound: C(C(=O)C(=O)O)Br [Bromopyruvate] + COc1cccc2cc(-c3nc([C@H]4CC[C@H](C(=O)O)CC4)n4ncnc(N)c34)[nH]c12 [OSI-027] (partner 0.5 µM)
How it was run: (§1)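 Dosing by pin tool came one day after lung cancer cell lines were seeded in 1536-well plates, using either one drug or a fixed anchor-drug dose plus five library-drug doses (not always all listed) in √10 steps. After 5 days, nuclei were counted on 4× images. Relative viability is treated-well nuclei count divided by vehicle-well nuclei count, and values are medians of duplicate plates.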

[2] = compound: C(C(=O)C(=O)O)Br [Bromopyruvate] + C[C@@H](Oc1cc(-c2cnn(C3CCNCC3)c2)cnc1N)c1c(Cl)ccc(F)c1Cl [Crizotinib] (partner 1 µM)
How it was run: as §1

[3] = compound: C(C(=O)C(=O)O)Br [Bromopyruvate] + Nc1ncn([C@H]2C[C@H](O)[C@@H](CO)O2)c(=O)n1 [Decitabine] (partner 2 µM)
How it was run: as §1

[4] = compound: CC(O)(CS(=O)(=O)c1ccc(F)cc1)C(=O)Nc1ccc(C#N)c(C(F)(F)F)c1 [Bicalutamide] + COc1cccc2cc(-c3nc([C@H]4CC[C@H](C(=O)O)CC4)n4ncnc(N)c34)[nH]c12 [OSI-027] (partner 0.5 µM)
How it was run: as §1

Row | Cell Line | relative viability ([1]; first compound 1 µM) | relative viability ([1]; first compound 3.162 µM) | relative viability ([1]; first compound 10 µM) | relative viability ([1]; first compound 31.62 µM) | relative viability ([1]; first compound 100 µM) | relative viability ([2]; first compound 1 µM) | relative viability ([2]; first compound 3.162 µM) | relative viability ([2]; first compound 10 µM) | relative viability ([2]; first compound 31.62 µM) | relative viability ([2]; first compound 100 µM) | relative viability ([3]; first compound 1 µM) | relative viability ([3]; first compound 3.162 µM) | relative viability ([3]; first compound 10 µM) | relative viability ([3]; first compound 31.62 µM) | relative viability ([3]; first compound 100 µM) | relative viability ([4]; first compound 0.08 µM) | relative viability ([4]; first compound 0.253 µM) | relative viability ([4]; first compound 0.8 µM) | relative viability ([4]; first compound 2.53 µM)
1 | HCC-78 | 0.379 | 0.326 | 0.403 | 0.355 | 0.345 | 0.368 | 0.339 | 0.37 | 0.349 | 0.347 | 0.644 | 0.708 | 0.723 | 0.63 | 0.655 | 0.381 | 0.371 | 0.43 | 0.352
2 | IA-LM |  |  |  |  |  | 0.642 | 0.796 | 0.634 | 0.789 | 0.522 |  |  |  |  |  |  |  |  | 
3 | NCI-H441 | 0.709 | 0.693 | 0.76 | 0.609 | 0.571 | 0.884 | 0.739 | 0.661 | 0.82 | 0.337 | 0.324 | 0.238 | 0.243 | 0.22 | 0.242 | 0.689 | 0.585 | 0.669 | 0.534
4 | NCI-H322M | 0.515 | 0.58 | 0.576 | 0.523 | 0.599 | 0.958 | 0.804 | 0.948 | 0.806 | 0.943 | 0.705 | 0.717 | 0.747 | 0.758 | 0.669 | 0.6 | 0.524 | 0.568 | 0.474
5 | NCI-H1993 | 0.623 | 0.513 | 0.525 | 0.549 | 0.539 | 1.25 | 0.931 | 0.899 | 0.84 | 0.867 | 0.612 | 0.609 | 0.628 | 0.655 | 0.464 | 0.479 | 0.594 | 0.523 | 0.511
6 | COR-L23 | 0.817 | 0.879 | 0.977 | 0.705 | 0.401 | 0.564 | 0.597 | 0.717 | 0.713 | 0.336 | 0.407 | 0.404 | 0.469 | 0.379 | 0.281 | 0.814 | 0.751 | 0.955 | 0.705
7 | NCI-H2126 | 0.756 | 0.707 | 0.65 | 0.668 | 0.824 | 1.02 | 1.07 | 1.04 | 0.99 | 0.988 | 0.625 | 0.603 | 0.543 | 0.582 | 0.564 | 0.681 | 0.619 | 0.673 | 0.755
8 | LC-2-ad | 0.839 | 0.867 | 0.9 | 0.837 | 0.633 | 0.218 | 0.47 | 0.458 | 0.52 | 0.469 | 0.856 | 0.726 | 0.797 | 0.872 | 0.695 | 0.962 | 0.718 | 0.885 | 0.684
9 | NCI-H1915 | 0.669 | 0.612 | 0.665 | 0.637 | 0.677 | 0.836 | 0.862 | 0.885 | 0.923 | 0.878 | 0.258 | 0.273 | 0.268 | 0.249 | 0.271 | 0.639 | 0.516 | 0.653 | 0.535
